Results reported in ChEMBL document CHEMBL1201862, “PubChem BioAssay data set” (2004).
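The compound was tested at five concentrations on cells cultured in 96-well plates, with a 48-hour exposure period. GI50 = concentration required for 50% inhibition of growth.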 Calls of active or inactive are those of the source. Rule as the data show it: active = GI50 up to about 1.1 µM and inactive = higher.

Legend:
Experiment in all cases: growth of human tumour cells (NCI), 48 h
HCT-15 = tested on: HCT-15
UO-31 = tested on: UO-31
SN12C = tested on: SN12C
CCRF-CEM = tested on: CCRF-CEM
SF-268 = tested on: SF-268
A498 = tested on: A498
IGROV-1 = tested on: IGROV-1
OVCAR-4 = tested on: OVCAR-4
SF-295 = tested on: SF-295
OVCAR-3 = tested on: OVCAR-3
EKVX = tested on: EKVX
OVCAR-5 = tested on: OVCAR-5
COLO 205 = tested on: COLO 205
KM12 = tested on: KM12
A549 = tested on: A549
CAKI-1 = tested on: CAKI-1
SNB-75 = tested on: SNB-75
RXF 393 = tested on: RXF 393

Row | SMILES | GI50 (HCT-15) [µM] | GI50 (UO-31) | GI50 (SN12C) | GI50 (CCRF-CEM) | GI50 (SF-268) | GI50 (A498) | GI50 (IGROV-1) | GI50 (OVCAR-4) | GI50 (SF-295) | GI50 (OVCAR-3) | GI50 (EKVX) | GI50 (OVCAR-5) | GI50 (COLO 205) | GI50 (KM12) | GI50 (A549) | GI50 (CAKI-1) | GI50 (SNB-75) | GI50 (RXF 393)
1 | CCC(=O)OC1CCn2c1nc1c2C(=O)C(C)=C(NC(C)=O)C1=N (stereo unspecified) | 2.25 | 2.2 µM (inactive) | 1.6 µM (inactive) | 1 µM (active) | 2.54 µM (inactive) | 1.82 µM (inactive) | 2.29 µM (inactive) | 1.35 µM (inactive) | 2.02 µM (inactive) | 0.453 µM (active) | 2.63 µM (inactive) | 1.87 µM (inactive) | 1.72 µM (inactive) | 2.11 µM (inactive) | 3.02 µM (inactive) | 0.653 µM (active) | 2.48 µM (inactive) | 
2 | Cn1cnc([N+](=O)[O-])c1Sc1nccn1-c1cccc2ccccc12 |  | 16.7 µM (inactive) | 31.7 µM (inactive) | 19.5 µM (inactive) | 24.8 µM (inactive) | 32.7 µM (inactive) | 26.7 µM (inactive) | 24 µM (inactive) | 48.4 µM (inactive) | 22.9 µM (inactive) | 26.9 µM (inactive) | 23.2 µM (inactive) | 16.7 µM (inactive) | 35.7 µM (inactive) | 35 µM (inactive) | 30.9 µM (inactive) | 29.9 µM (inactive) | 
3 | CCN(CC)C(=S)SCC(=O)Nc1nc2c(s1)CCCC2 | 24.6 | 36.7 µM (inactive) | > 100 µM (inactive) | 49.4 µM (inactive) | > 100 µM (inactive) | > 100 µM (inactive) | > 100 µM (inactive) | > 100 µM (inactive) | 85.5 µM (inactive) |  |  | > 100 µM (inactive) | 95.1 µM (inactive) | > 100 µM (inactive) | > 100 µM (inactive) |  | 72.6 µM (inactive) | 
4 | O=C1CC[C@@H](S(=O)(=O)c2ccccc2)[C@H](/C=C/c2ccccc2)O1 | > 100 | > 100 µM (inactive) | > 100 µM (inactive) | > 100 µM (inactive) |  | > 100 µM (inactive) | > 100 µM (inactive) | > 100 µM (inactive) | > 100 µM (inactive) | > 100 µM (inactive) | > 100 µM (inactive) | > 100 µM (inactive) | > 100 µM (inactive) | > 100 µM (inactive) | > 100 µM (inactive) |  | > 100 µM (inactive) | > 100 µM (inactive)
5 | COc1ccc2occ(CCC(=O)O)c2c1 | > 100 |  | > 100 µM (inactive) | > 100 µM (inactive) |  | > 100 µM (inactive) | > 100 µM (inactive) | > 100 µM (inactive) | > 100 µM (inactive) | > 100 µM (inactive) | > 100 µM (inactive) |  | > 100 µM (inactive) |  | > 100 µM (inactive) | > 100 µM (inactive) | > 100 µM (inactive) | > 100 µM (inactive)
6 | NC(=O)c1ccccc1NC(=O)C(=O)C(C(=O)c1ccc(Cl)c(Cl)c1)C1OC(=O)c2ccccc21 (stereo unspecified) | 46.5 |  | 44.4 µM (inactive) | > 100 µM (inactive) | 34.4 µM (inactive) | 31.8 µM (inactive) | 60.1 µM (inactive) | 43.3 µM (inactive) |  | 35.1 µM (inactive) | > 100 µM (inactive) | > 100 µM (inactive) | 41.8 µM (inactive) | 60.4 µM (inactive) | 43.1 µM (inactive) | 52.6 µM (inactive) | 23.4 µM (inactive) | 17 µM (inactive)
7 | O=C(/C=C/c1ccc([N+](=O)[O-])o1)N1CCN(Cc2ccccc2)CC1 | 4.41 | 17.3 µM (inactive) | 9.04 µM (inactive) | 2.7 µM (inactive) | 14 µM (inactive) | 15.7 µM (inactive) | 16.5 µM (inactive) | 15.6 µM (inactive) | 15.3 µM (inactive) | 17.7 µM (inactive) | 22.4 µM (inactive) | 17.3 µM (inactive) |  | 12.1 µM (inactive) | 16.9 µM (inactive) | 8.17 µM (inactive) | 14.7 µM (inactive) | 11.8 µM (inactive)
8 | Nc1nc2c(c(=O)[nH]1)NC(CO)CN2 (stereo unspecified) | > 100 | > 100 µM (inactive) | > 100 µM (inactive) | 29.9 µM (inactive) |  |  | > 100 µM (inactive) |  | 89.5 µM (inactive) | > 100 µM (inactive) | > 100 µM (inactive) |  | > 100 µM (inactive) | > 100 µM (inactive) | > 100 µM (inactive) |  | > 100 µM (inactive) | > 100 µM (inactive)
9 | COc1cc(C2SCC(=O)N2NC(=O)c2ccc(NC(C)=O)cc2)cc(OC)c1OC (stereo unspecified) | > 100 | > 100 µM (inactive) | > 100 µM (inactive) |  | > 100 µM (inactive) | > 100 µM (inactive) | > 100 µM (inactive) | > 100 µM (inactive) | > 100 µM (inactive) | > 100 µM (inactive) | > 100 µM (inactive) | > 100 µM (inactive) | > 100 µM (inactive) | > 100 µM (inactive) | > 100 µM (inactive) |  | > 100 µM (inactive) | > 100 µM (inactive)
10 | CCOC(=O)/C(C#N)=C(O)/C(=C\c1ccc(Br)cc1)NC(=O)c1ccccc1 | 37.4 | > 100 µM (inactive) | > 100 µM (inactive) | > 100 µM (inactive) | > 100 µM (inactive) | > 100 µM (inactive) | > 100 µM (inactive) | > 100 µM (inactive) | > 100 µM (inactive) | > 100 µM (inactive) | > 100 µM (inactive) | > 100 µM (inactive) | > 100 µM (inactive) | > 100 µM (inactive) | > 100 µM (inactive) | > 100 µM (inactive) | > 100 µM (inactive) | 
11 | COC(=O)c1c2cccccc-2c(Cc2c3cccccc-3c(C(=O)OC)c2O)c1O | > 100 | > 100 µM (inactive) | > 100 µM (inactive) | > 100 µM (inactive) | > 100 µM (inactive) | > 100 µM (inactive) | > 100 µM (inactive) | > 100 µM (inactive) | > 100 µM (inactive) | > 100 µM (inactive) | > 100 µM (inactive) | > 100 µM (inactive) | > 100 µM (inactive) | > 100 µM (inactive) | > 100 µM (inactive) | > 100 µM (inactive) | 86.5 µM (inactive) | 
12 | CC1Cc2c(N)nc(NN)nc2NC1=O (stereo unspecified) | > 100 | > 100 µM (inactive) | > 100 µM (inactive) | > 100 µM (inactive) |  |  | > 100 µM (inactive) |  | > 100 µM (inactive) | > 100 µM (inactive) | > 100 µM (inactive) |  | > 100 µM (inactive) | > 100 µM (inactive) | > 100 µM (inactive) |  | > 100 µM (inactive) | > 100 µM (inactive)
13 | CC(=O)N1CC(=O)NC1=S | > 100 | > 100 µM (inactive) | > 100 µM (inactive) | > 100 µM (inactive) | > 100 µM (inactive) |  | > 100 µM (inactive) | > 100 µM (inactive) | > 100 µM (inactive) | > 100 µM (inactive) | > 100 µM (inactive) | > 100 µM (inactive) | > 100 µM (inactive) | > 100 µM (inactive) | > 100 µM (inactive) | > 100 µM (inactive) | 69.3 µM (inactive) | 
14 | Nc1nc(Cl)cc(NCCCCCNc2cc(Cl)nc(N)n2)n1 | 73.6 | > 100 µM (inactive) | > 100 µM (inactive) | 54.1 µM (inactive) | 29.1 µM (inactive) |  | > 100 µM (inactive) | 34.8 µM (inactive) | 29.2 µM (inactive) | 42 µM (inactive) | 86.5 µM (inactive) | 37.4 µM (inactive) | > 100 µM (inactive) | > 100 µM (inactive) | 42 µM (inactive) | 17 µM (inactive) | 72.3 µM (inactive) | 58.3 µM (inactive)
15 | CCOc1cc2c(cc1OC)c[n+](C)c1c3cc(OC)c(OC)cc3ccc21 | > 75.2 | > 100 µM (inactive) | 77.4 µM (inactive) | 35.9 µM (inactive) | > 93.3 µM (inactive) | 47.6 µM (inactive) | > 66.5 µM (inactive) | > 100 µM (inactive) | > 100 µM (inactive) | > 100 µM (inactive) | > 100 µM (inactive) | > 49.1 µM (inactive) | 31.6 µM (inactive) | 72.4 µM (inactive) | > 100 µM (inactive) | > 67.8 µM (inactive) |  | 34 µM (inactive)
16 | O=C(O)C1=NN=C(C(=O)O)NN1 | > 100 | > 100 µM (inactive) | > 100 µM (inactive) | > 100 µM (inactive) | > 100 µM (inactive) |  | > 100 µM (inactive) | > 100 µM (inactive) | > 100 µM (inactive) | > 100 µM (inactive) | > 100 µM (inactive) | > 100 µM (inactive) | > 100 µM (inactive) | > 100 µM (inactive) | > 100 µM (inactive) | > 100 µM (inactive) | > 100 µM (inactive) | > 100 µM (inactive)
17 | CC[N+](C)(CC)CC(C)(C)C(=O)/C=C/c1ccc(/C=C/C(=O)C(C)(C)C[N+](C)(CC)CC)cc1 | > 100 | > 100 µM (inactive) | > 100 µM (inactive) | > 100 µM (inactive) | > 100 µM (inactive) | > 100 µM (inactive) | > 100 µM (inactive) | > 100 µM (inactive) | > 100 µM (inactive) | > 100 µM (inactive) | > 100 µM (inactive) | > 100 µM (inactive) | > 100 µM (inactive) | > 100 µM (inactive) | > 100 µM (inactive) | > 100 µM (inactive) | > 100 µM (inactive) | > 100 µM (inactive)
